Experimental data taken from ChEMBL document CHEMBL1201862, “PubChem BioAssay data set” (2004).
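Exposure lasted 48 hours, with cells grown in 96-well plates and compounds tested at five concentrations. Abbreviation: GI50, concentration required for 50% inhibition of growth.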 Active and inactive are the calls of the source. No stated cut-off is given here; in the data, active = GI50 up to about 1.1 µM and inactive = higher.

How the values were obtained:
Experiment in all cases: NCI-60 cell line screen, 48 h
CCRF-CEM = tested on: CCRF-CEM
DMS-114 = tested on: DMS-114
SN12C = tested on: SN12C
SK-MEL-28 = tested on: SK-MEL-28
NCI-H522 = tested on: NCI-H522
NCI-H23 = tested on: NCI-H23
ACHN = tested on: ACHN
OVCAR-3 = tested on: OVCAR-3
HOP-62 = tested on: HOP-62
OVCAR-4 = tested on: OVCAR-4
NCI-H460 = tested on: NCI-H460
UACC-62 = tested on: UACC-62
RPMI-8226 = tested on: RPMI-8226
M14 = tested on: M14
786-0 = tested on: 786-0
A549 = tested on: A549
HCC 2998 = tested on: HCC 2998
SW-620 = tested on: SW-620
T47D = tested on: T47D
NCI/ADR-RES = tested on: NCI/ADR-RES

SMILES	GI50 (CCRF-CEM)	GI50 (DMS-114)	GI50 (SN12C)	GI50 (SK-MEL-28)	GI50 (NCI-H522)	GI50 (NCI-H23)	GI50 (ACHN)	GI50 (OVCAR-3)	GI50 (HOP-62)	GI50 (OVCAR-4)	GI50 (NCI-H460)	GI50 (UACC-62)	GI50 (RPMI-8226)	GI50 (M14)	GI50 (786-0)	GI50 (A549)	GI50 (HCC 2998)	GI50 (SW-620)	GI50 (T47D)	GI50 (NCI/ADR-RES)
CS/C(c1ccccc1)=[N+](\[O-])Cc1ccccc1	39.4 µM (inactive)	45.9 µM (inactive)	> 100 µM (inactive)	> 100 µM (inactive)	90.2 µM (inactive)	> 100 µM (inactive)	> 100 µM (inactive)	> 100 µM (inactive)	> 100 µM (inactive)	> 100 µM (inactive)	33.6 µM (inactive)	> 100 µM (inactive)	27.1 µM (inactive)	> 100 µM (inactive)	> 100 µM (inactive)	> 100 µM (inactive)	> 100 µM (inactive)	–	–	–
COc1ccc([C@H]2[C@@H]3CCc4ccccc4C3=NN2C(N)=S)cc1OC	32.4 µM (inactive)	28.8 µM (inactive)	> 100 µM (inactive)	78 µM (inactive)	15.9 µM (inactive)	34.6 µM (inactive)	32.7 µM (inactive)	51.4 µM (inactive)	97.7 µM (inactive)	41.4 µM (inactive)	44.1 µM (inactive)	34 µM (inactive)	37.9 µM (inactive)	67.1 µM (inactive)	54.2 µM (inactive)	41.9 µM (inactive)	> 100 µM (inactive)	58.2 µM (inactive)	–	–
CCC1(Cl)C(=O)NC(=O)N(C2CC(O)C(CO)O2)C1N=[N+]=[N-] (stereo not given)	> 100 µM (inactive)	80.4 µM (inactive)	> 100 µM (inactive)	> 100 µM (inactive)	> 100 µM (inactive)	65.3 µM (inactive)	> 100 µM (inactive)	> 100 µM (inactive)	> 100 µM (inactive)	> 100 µM (inactive)	> 100 µM (inactive)	> 100 µM (inactive)	> 100 µM (inactive)	> 100 µM (inactive)	> 100 µM (inactive)	> 100 µM (inactive)	> 100 µM (inactive)	> 100 µM (inactive)	–	–
COc1cc2c(cc1OC)[C@@H](Nc1ccc(F)cc1)C1COC(=O)[C@@H]1C2c1cc(OC)c(O)c(OC)c1 (stereo not given in full)	0.14 µM (active)	1.15 µM (inactive)	1.56 µM (inactive)	21.9 µM (inactive)	2.2 µM (inactive)	0.632 µM (active)	0.12 µM (active)	23.4 µM (inactive)	0.128 µM (active)	16.7 µM (inactive)	< 0.0204 µM (active)	0.589 µM (active)	0.16 µM (active)	1.24 µM (inactive)	0.573 µM (active)	0.0484 µM (active)	2.65 µM (inactive)	0.512 µM (active)	–	–
Cc1cccc(C2SCc3nc4ccccc4n32)c1 (stereo not given)	31.8 µM (inactive)	10.9 µM (inactive)	19.5 µM (inactive)	26.1 µM (inactive)	17.7 µM (inactive)	> 10 µM (inactive)	24.3 µM (inactive)	17.8 µM (inactive)	23.6 µM (inactive)	28.2 µM (inactive)	27.7 µM (inactive)	27.8 µM (inactive)	13.9 µM (inactive)	26.7 µM (inactive)	25.1 µM (inactive)	37 µM (inactive)	–	39.2 µM (inactive)	–	–
COc1cccc2nc3cc(C)c(C)cc3nc12	> 100 µM (inactive)	> 100 µM (inactive)	> 100 µM (inactive)	> 100 µM (inactive)	95.9 µM (inactive)	> 100 µM (inactive)	> 100 µM (inactive)	> 100 µM (inactive)	> 100 µM (inactive)	> 100 µM (inactive)	> 100 µM (inactive)	> 100 µM (inactive)	–	> 100 µM (inactive)	> 100 µM (inactive)	> 100 µM (inactive)	> 100 µM (inactive)	> 100 µM (inactive)	–	–
O=c1ccc(=O)n(-c2ccccc2)[nH]1	> 100 µM (inactive)	–	> 100 µM (inactive)	> 100 µM (inactive)	> 100 µM (inactive)	> 100 µM (inactive)	> 100 µM (inactive)	> 100 µM (inactive)	> 100 µM (inactive)	> 100 µM (inactive)	> 100 µM (inactive)	> 100 µM (inactive)	> 100 µM (inactive)	> 100 µM (inactive)	> 100 µM (inactive)	> 100 µM (inactive)	> 100 µM (inactive)	> 100 µM (inactive)	> 100 µM (inactive)	> 100 µM (inactive)
CC(=O)c1ccc(Nc2c3c(nc4ccccc24)CCCC3)cc1	15.9 µM (inactive)	–	22.9 µM (inactive)	50.7 µM (inactive)	3.85 µM (inactive)	11.3 µM (inactive)	38.3 µM (inactive)	11.5 µM (inactive)	10.3 µM (inactive)	41.9 µM (inactive)	17.5 µM (inactive)	17.1 µM (inactive)	27.6 µM (inactive)	12.6 µM (inactive)	25.7 µM (inactive)	19 µM (inactive)	42.1 µM (inactive)	16.9 µM (inactive)	10.1 µM (inactive)	10.4 µM (inactive)
CC1OC(OC2C(OC(=O)[C@]34CCC(C)(C)CC3C3=CCC5[C@@]6(C)C[C@H](O)[C@H](OC7OC(CO)C(O)C(O)C7N)[C@@](C)(C(=O)O)C6CC[C@@]5(C)C3(C)CC4)OCC(O)C2O)C(O)C(O)C1OC1OCC(O)C(O)C1O (stereo not given in full)	> 100 µM (inactive)	> 100 µM (inactive)	> 100 µM (inactive)	> 100 µM (inactive)	> 100 µM (inactive)	> 100 µM (inactive)	> 100 µM (inactive)	> 100 µM (inactive)	> 100 µM (inactive)	–	> 100 µM (inactive)	> 100 µM (inactive)	> 100 µM (inactive)	–	> 100 µM (inactive)	> 100 µM (inactive)	> 100 µM (inactive)	> 100 µM (inactive)	–	–
CO[C@H]1[C@@H](O)[C@@H](C)O[C@@H](O[C@H]2CC[C@@]3(C)[C@H](CC[C@@H]4[C@@H]3CC[C@]3(C)[C@@H](C5=CC(=O)OC5)[C@@H](OC(C)=O)C[C@]43O)C2)[C@@H]1O [NERITALOSIDE]	0.029 µM (active)	–	0.0152 µM (active)	0.291 µM (active)	0.0142 µM (active)	0.027 µM (active)	0.0188 µM (active)	0.0229 µM (active)	0.0253 µM (active)	0.0601 µM (active)	0.0165 µM (active)	0.1 µM (active)	0.17 µM (active)	0.0904 µM (active)	0.0176 µM (active)	0.0104 µM (active)	0.23 µM (active)	0.111 µM (active)	0.162 µM (active)	0.0486 µM (active)
Cc1cn(C2CC3C(COCN3O)O2)c(=O)[nH]c1=O (stereo not given)	> 100 µM (inactive)	> 100 µM (inactive)	> 100 µM (inactive)	> 100 µM (inactive)	–	> 100 µM (inactive)	> 100 µM (inactive)	> 100 µM (inactive)	> 100 µM (inactive)	> 100 µM (inactive)	> 100 µM (inactive)	> 100 µM (inactive)	> 100 µM (inactive)	> 100 µM (inactive)	> 100 µM (inactive)	> 100 µM (inactive)	> 100 µM (inactive)	> 100 µM (inactive)	–	–
